# Patent US20050250818A1, “Ortho substituted aryl or heteroaryl amide compounds” (Pfizer Inc, priority 2004, published 2005)
# Target: T1, human EP4 receptors (Homo sapiens, UniProt P35408)
# T1 construct: expressed in transfected cells
# Assay: cAMP assay in human EP4 transfectant
# Assay type: cell-based
# Conditions: HEK293 cells expressing human EP4 receptors; 1 nM PGE2, 0.2 mM IBMX, 37° C. for 10 min
# Protocol: cAMP Assay in Human EP4 Transfectant HEK293 cells expressing human EP4 receptors (hEP4 cells) are maintained in DMEM containing 10% FBS and 500 μg/ml geneticin. For harvesting hEP4 cells, culture medium is aspirated and cells in 75 cm^2 flask are washed with 10 ml of phosphate buffered saline (PBS). Another 10 ml of PBS is added to the cells and incubated for 20 min at room temperature. Human EP4 cells are harvested by pipetting and centrifuged at 300×g for 4 min. Cells are resuspended in DMEM without neutral red at a density of 7×10^5 cells/ml containing 0.2 mM IBMX (PDE inhibitor), 1 nM PGE2 and test compounds in PCR-tubes, and incubated at 37° C. for 10 min. The reaction is stopped by heating at 100° C. for 10 min with thermal cycler. Concentration of cAMP in reaction mixtures is determined with SPA cAMP Kit (Amersham) or cAMP Screen™ (Applied Biosystems) according to the manufacture's instruction. Reference: Eur. J. Pharmacol. 340 (1997) 227-241 cAMP assay in human EP4 transfectant were conducted using the method described above. IC50: the concentration of the individual compound required to reduce the amount of ligand by 50%.
# T1 sequence (P35408 whole entry): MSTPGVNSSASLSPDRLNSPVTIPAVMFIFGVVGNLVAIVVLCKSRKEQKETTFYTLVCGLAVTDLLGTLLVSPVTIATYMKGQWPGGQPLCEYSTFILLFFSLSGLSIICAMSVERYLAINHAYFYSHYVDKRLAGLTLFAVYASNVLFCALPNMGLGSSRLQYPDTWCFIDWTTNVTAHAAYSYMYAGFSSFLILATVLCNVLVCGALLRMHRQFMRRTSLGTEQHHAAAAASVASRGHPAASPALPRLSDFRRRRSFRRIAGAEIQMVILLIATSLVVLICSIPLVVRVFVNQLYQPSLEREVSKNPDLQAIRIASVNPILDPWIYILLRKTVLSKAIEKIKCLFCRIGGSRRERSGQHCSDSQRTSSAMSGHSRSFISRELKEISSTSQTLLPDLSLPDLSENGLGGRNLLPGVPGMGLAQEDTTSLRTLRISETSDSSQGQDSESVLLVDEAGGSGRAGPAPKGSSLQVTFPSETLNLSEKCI
row,Compound,IC50
1,"O=C(O)c1ccc(CNC(=O)c2cc(Cl)ccc2OCCc2ccccc2)cc1 [EXAMPLE 1, 4-({[5-CHLORO-2-(2-PHENYLETHOXY-)BENZOYL]AMINO}METHYL)BENZOIC ACID]",149 nM
2,"O=C(O)c1ccc(CNC(=O)c2cc(Cl)ccc2OCCc2ccccc2Cl)cc1 [EXAMPLE 2, 4-[({5-CHLORO-2-[2-(2-CHLOROPHENYL)ETHOXY]BENZOYL}AMINO)METHYL]BENZOIC ACID]",108 nM
3,"O=C(O)c1ccc(CNC(=O)c2cc(Cl)ccc2OCCc2ccc(F)cc2)cc1 [EXAMPLE 3, 4-[({5-CHLORO-2-[2-(4-FLUOROPHENYL)ETHOXY]BENZOYL}AMINO)METHYL]BENZOIC ACID]",126 nM
4,"O=C(O)c1ccc(CNC(=O)c2cc(Cl)ccc2OCCc2ccc(Cl)cc2)cc1 [EXAMPLE 4, 4-[({5-CHLORO-2-[2-(4-CHLOROPHENYL)ETHOXY]BENZOYL}AMINO)METHYL]BENZOIC ACID]",107 nM
5,"O=C(O)c1ccc(CNC(=O)c2cc(Cl)ccc2OCc2ccc(Cl)cc2)cc1 [EXAMPLE 6, 4-[({5-CHLORO-2-[(4-CHLOROBENZYL)OXY]BENZOYL)AMINO)METHYL]BENZOIC ACID]",441 nM
6,"C[C@H](NC(=O)c1cc(Cl)ccc1OCCc1c(F)cccc1F)c1ccc(C(=O)O)cc1 [EXAMPLE 8, 4-[(1S)-1-({5-CHLORO-2-[2-(2,6-DIFLUOROPHENYL)ETHOXY]BENZOYL}AMINO)ETHYL]BENZOIC ACID]",98 nM
7,"C[C@H](NC(=O)c1cc(Cl)cnc1OCCc1ccc(F)cc1)c1ccc(C(=O)O)cc1 [EXAMPLE 9, 4-{(1S)-1-[({5-CHLORO-2-[2-(4-FLUOROPHENYL)ETHOXY]PYRIDIN-3-YL}CARBONYL)AMINO]ETHYL}BENZOIC ACID]",240 nM
8,"CC(C)CCOc1ccc(Cl)cc1C(=O)N[C@@H](C)c1ccc(C(=O)O)cc1 [EXAMPLE 14, 4-((1S)-1-{[5-CHLORO-2-(3-METHYLBUTOXY)BENZOYL]AMINO}ETHYL)BENZOIC ACID]",41 nM
9,"C[C@H](NC(=O)c1cc(Cl)cnc1N(C)CCc1ccccc1)c1ccc(C(=O)O)cc1 [EXAMPLE 16, 4-{(1S)-1-[({5-CHLORO-2-[METHYL(2-PHENYLETHYL)AMINO]PYRIDIN-3-YL}CARBONYL)AMINO]ETHYL}BENZOIC ACID]",350 nM
10,"C[C@H](NC(=O)c1cc(Cl)ccc1O[C@H]1CC[C@@H](C)CC1)c1ccc(C(=O)O)cc1 [EXAMPLE 17, 4-[(1S)-1-({5-CHLORO-2-[(C/S4-METHYLCYCLOHEXYL)OXY]BENZOYL}AMINO)ETHYL]BENZOIC ACID]",510 nM
11,"C[C@H](NC(=O)c1cc(Cl)ccc1O[C@H]1CC[C@H](C)CC1)c1ccc(C(=O)O)cc1 [EXAMPLE 18, 4-[(1S)-1-({5-CHLORO-2-[(TRANS-4-METHYLCYCLOHEXYL)OXY]BENZOYL}AMINO)ETHYL]BENZOIC ACID]",260 nM
12,"Cc1ccccc1CCOc1ncc(Cl)cc1C(=O)N[C@@H](C)c1ccc(C(=O)O)cc1 [EXAMPLE 19, 4-{(1S)-1-[({5-CHLORO-2-[2-(2-METHYLPHENYL)ETHOXY]PYRIDIN-3-YL}CARBONYL)AMINO]ETHYL}BENZOIC ACID]",130 nM
13,"COC(C)(C)CCOc1ccc(Cl)cc1C(=O)N[C@@H](C)c1ccc(C(=O)O)cc1 [EXAMPLE 20, 4-((1S)-1-{[5-CHLORO-2-(3-METHOXY-3-METHYLBUTOXY)BENZOYL]AMINO}ETHYL)BENZOIC ACID]",510 nM
14,"CC(C)OCCOc1ccc(Cl)cc1C(=O)N[C@@H](C)c1ccc(C(=O)O)cc1 [EXAMPLE 21, 4-((1S)-1-{[5-CHLORO-2-(2-ISOPROPOXYETHOXY)BENZOYL]AMINO}ETHYL)BENZOIC ACID]",200 nM
15,"COC(COc1ccc(Cl)cc1C(=O)N[C@@H](C)c1ccc(C(=O)O)cc1)c1ccccc1 (stereo partly drawn) [EXAMPLE 27, 4-((1S)-1-{[5-CHLORO-2-(2-METHOXY-2-PHENYLETHOXY)BENZOYL]AMINO}ETHYL)BENZOIC ACID]",140 nM
16,"C[C@H](NC(=O)c1cc(Cl)ccc1OCCOc1ccc(F)cc1)c1ccc(C(=O)O)cc1 [EXAMPLE 28, 4-[(1S)-1-({5-CHLORO-2-[2-(4-FLUOROPHENOXY)ETHOXY]BENZOYL}AMINO)ETHYL]BENZOIC ACID]",210 nM
17,"CC(C)COc1ccc(Cl)cc1C(=O)N[C@@H](C)c1ccc(C(=O)O)cc1 [EXAMPLE 30, 4-{(1S)-1-[(5-CHLORO-2-ISOBUTOXYBENZOYL)AMINO}ETHYL]BENZOIC ACID]",140 nM
18,"CC(C)CCOc1ncc(Cl)cc1C(=O)N[C@@H](C)c1ccc(C(=O)O)cc1 [EXAMPLE 31, 4-[(1S)-1-({[5-CHLORO-2-(3-METHYLBUTOXY)PYRIDIN-3-YL]CARBONYL}AMINO)ETHYL]BENZOIC ACID]",140 nM
19,"C[C@H](NC(=O)c1cc(Cl)ccc1OCc1ccc(F)cc1F)c1ccc(C(=O)O)cc1 [EXAMPLE 35, 4-[(1S)-1-({5-CHLORO-2-[(2,4-DIFLUOROBENZYL)OXY]BENZOYL}AMINO)ETHYL]BENZOIC ACID]",110 nM
20,"C[C@H](NC(=O)c1cc(Cl)ccc1OCc1ccccc1F)c1ccc(C(=O)O)cc1 [EXAMPLE 36, 4-[(1S)-1-({5-CHLORO-2-[(2-FLUOROBENZYL)OXY]BENZOYL}AMINO)ETHYL]BENZOIC ACID]",170 nM
21,"C[C@H](NC(=O)c1cc(Cl)ccc1OCc1cc(F)cc(F)c1)c1ccc(C(=O)O)cc1 [EXAMPLE 37, 4-[(1S)-1-({5-CHLORO-2-[(3,5-DIFLUOROBENZYL)OXY]BENZOYL}AMINO)ETHYL]BENZOIC ACID]",78 nM

# Continued by falling IC50, values first:
row,IC50,Compound
1,78 nM,"C[C@H](NC(=O)c1cc(Cl)cnc1OCCc1ccc(Cl)cc1)c1ccc(C(=O)O)cc1 [EXAMPLE 15, 4-{(1S)-1-[({5-CHLORO-2-[2-(4-CHLOROPHENYL)ETHOXY]PYRIDIN-3-YL}CARBONYL)AMINO]ETHYL}BENZOIC ACID]"
2,75 nM,"C[C@H](NC(=O)c1cc(Cl)ccc1OCc1ccccc1)c1ccc(C(=O)O)cc1 [EXAMPLE 38, 4-((1S)-1-{[2-(BENZYLOXY)-5-CHLOROBENZOYL]AMINO}ETHYL)BENZOIC ACID]"
3,63 nM,"C[C@H](NC(=O)c1cc(Cl)ccc1OCc1ccc(F)c(F)c1)c1ccc(C(=O)O)cc1 [EXAMPLE 33, 4-[(1S)-1-({5-CHLORO-2-[(3,4-DIFLUOROBENZYL)OXY]BENZOYL}AMINO)ETHYL]BENZOIC ACID]"
4,62 nM,"Cc1ccccc1CCOc1ccc(Cl)cc1C(=O)NCc1ccc(C(=O)O)cc1 [EXAMPLE 7, 4-[({5-CHLORO-2-[2-(2-METHYLPHENYL)ETHOXY]BENZOYL}AMINO)METHYL]BENZOIC ACID]"
5,62 nM,"C[C@H](NC(=O)c1cc(Cl)ccc1OCCOc1ccccc1)c1ccc(C(=O)O)cc1 [EXAMPLE 26, 4-((1S)-1-{[5-CHLORO-2-(2-PHENOXYETHOXY)BENZOYL]AMINO}ETHYL)BENZOIC ACID]"
6,50 nM,"C[C@H](NC(=O)c1cc(Cl)ccc1OCc1cc(F)ccc1F)c1ccc(C(=O)O)cc1 [EXAMPLE 32, 4-[(1S)-1-({5-CHLORO-2-[(2,5-DIFLUOROBENZYL)OXY]BENZOYL}AMINO)ETHYL]BENZOIC ACID]"
7,48 nM,"C[C@H](NC(=O)c1cc(Cl)ccc1OCCc1ccccc1F)c1ccc(C(=O)O)cc1 [EXAMPLE 10, 4-[(1S)-1-({5-CHLORO-2-[2-(2-FLUOROPHENYL)ETHOXY]BENZOYL}AMINO)ETHYL]BENZOIC ACID]"
8,46 nM,"C[C@H](NC(=O)c1cc(Cl)ccc1OCc1ccc(F)cc1)c1ccc(C(=O)O)cc1 [EXAMPLE 25, 4-[(1S)-1-({5-CHLORO-2-[(4-FLUOROBENZYL)OXY]BENZOYL}AMINO)ETHYL]BENZOIC ACID]"
9,41 nM,"C[C@H](NC(=O)c1cc(Cl)ccc1OCCc1ccc(F)cc1)c1ccc(C(=O)O)cc1 [EXAMPLE 34, 4-[(1S)-1-({5-CHLORO-2-[2-(4-FLUOROPHENYL)ETHOXY]BENZOYL}AMINO)ETHYL]BENZOIC ACID]"
10,35 nM,"C[C@H](NC(=O)c1cc(Cl)ccc1OC1CCCCC1)c1ccc(C(=O)O)cc1 [EXAMPLE 13, 4-((1S)-1-{[5-CHLORO-2-(CYCLOHEXYLOXY)BENZOYL]AMINO}ETHYL)BENZOIC ACID]"
11,30 nM,"C[C@H](NC(=O)c1cc(Cl)ccc1OCC1CCC1)c1ccc(C(=O)O)cc1 [EXAMPLE 29, 4-((1S)-1-{[5-CHLORO-2-(CYCLOBUTYLMETHOXY)BENZOYL]AMINO}ETHYL)BENZOIC ACID]"
12,29 nM,"C[C@H](NC(=O)c1cc(Cl)ccc1OCc1ccc(Cl)cc1)c1ccc(C(=O)O)cc1 [EXAMPLE 24, 4-[(1S)-1-({5-CHLORO-2-[(4-CHLOROBENZYL)OXY]BENZOYL}AMINO)ETHYL]BENZOIC ACID]"
13,22 nM,"C[C@H](NC(=O)c1cc(Cl)ccc1OCc1cccc(Cl)c1)c1ccc(C(=O)O)cc1 [EXAMPLE 23, 4-[(1S)-1-({5-CHLORO-2-[(3-CHLOROBENZYL)OXY]BENZOYL}AMINO)ETHYL]BENZOIC ACID]"
14,21 nM,"Cc1ccc(CCOc2ccc(Cl)cc2C(=O)N[C@@H](C)c2ccc(C(=O)O)cc2)cc1 [EXAMPLE 12, 4-[(1S)-1-({5-CHLORO-2-[2-(4-METHYLPHENYL)ETHOXY]BENZOYL}AMINO)ETHYL]BENZOIC ACID]"
15,20 nM,"Cc1ccccc1CCOc1ccc(Cl)cc1C(=O)N[C@@H](C)c1ccc(C(=O)O)cc1 [EXAMPLE 11, 4-[(1S)-1-({5-CHLORO-2-[2-(2-METHYLPHENYL)ETHOXY]BENZOYL}AMINO)ETHYL]BENZOIC ACID]"
16,13 nM,"C[C@H](NC(=O)c1cc(Cl)ccc1OCc1ccccc1Cl)c1ccc(C(=O)O)cc1 [EXAMPLE 22, 4-[(1S)-1-({5-CHLORO-2-[(2-CHLOROBENZYL)OXY]BENZOYL}AMINO)ETHYL]BENZOIC ACID]"
